Data published in article PMC10223997, “Screening and Elucidation of Chemical Structures of Novel Mammalian α-Glucosidase Inhibitors Targeting Anti-Diabetes Drug from Herbals Used by E De Ethnic Tribe in Vietnam” (Pharmaceuticals, 2023).
In brackets after ≈: the same amount, converted by molar mass.

System: Rat α-Glucosidase
Assay: Alpha-glucosidase inhibition assay (rat intestinal acetone powder, pNPG substrate)
Format: biochemical
Conditions: for maximum inhibition / IC50: purified compounds and acarbose, Figure 2
Method: • - Enzyme solution preparation: Enzyme solution was then sonicated 24 times, each for 12 s at 4 °C, and then centrifuged for 20 min at 10,000× g, 4 °C. The residue part was re-suspended twice with 15 mL of the same buffer (0.1 mol/L NPB, pH 7), as described above. All supernatants were mixed together and dialyzed for a half day at 4–6 °C to obtain the enzyme solution, which was then used for further analyses. • - Reaction and estimation of inhibitory activity: The enzyme inhibition assay was done according to Kwon et al. 2006 [40] with slight modification. The enzyme solution (50 µL) and the sample solution (50 µL) were mixed in 150 μL of 0.1 mol/L NPB, pH 7. This mixture was pre-incubated at 37 °C for 15 min. The reaction was started by adding 50 μL of the substrate pNPG (10 mmol/L) into this mixture solution, and this duration was kept at 37 °C for 30 min, then 325 μL of 1 mol/L Na2CO3 solution were added to terminate the reaction. This absorption of the final solution was measured at 410 nm (namely, E) using a UV spectrometer (UV-2550, Shimadzu, Japan) to estimate the enzymatic activity, and the control experiment was also conducted similarly, but instead of the inhibitor solution, 50 μL 0.1 mol/L potassium phosphate buffer (pH 7) and the absorbance was measured at 410 nm (namely, C). The inhibitory effect (%) was calculated using the equation below:
α-Glucosidase inhibition (%) = (C − E)/C × 100, where E denoted the optical density of the solution reaction in the presence of both α-glucosidase and the sample, and C is the optical density of the reaction blank.

| SMILES | Inhibition of Rat α-Glucosidase % (MeOH extracts of medicinal plants and acarbose, Table 1) [%] | Inhibition of Rat α-Glucosidase IC50 (MeOH extracts of medicinal plants and acarbose, listed as Acarbose) [µg/mL] | Inhibition of Rat α-Glucosidase IC50 (MeOH extracts of medicinal plants and acarbose, listed as acarbose) [µg/mL] | maximum inhibition | IC50 [µg/mL] |
| --- | --- | --- | --- | --- | --- |
| C[C@H]1O[C@H](O[C@H]2[C@H](O)[C@@H](O)[C@@H](O[C@H]3[C@H](O)[C@@H](O)C(O)O[C@@H]3CO)O[C@@H]2CO)[C@H](O)[C@@H](O)[C@@H]1N[C@H]1C=C(CO)[C@@H](O)[C@H](O)[C@H]1O (stereo partly drawn) [AC, acarbose, reference compound] | 92 | 310 | 309 | 84–85% | – |
| O=C(O)c1cc(O)c(O)c(O)c1 [GA, gallic acid] | – | – | – | 80% | 973 (≈ 5.72 mM) |
| C[C@@H]1O[C@@H](Oc2cc3c(=O)oc4c(O)c(O)cc5c(=O)oc(c2O)c3c45)[C@H](O)[C@H](O)[C@H]1O [EWC, eschweilenol C] | – | – | – | 93% | 191 (≈ 0.426 mM) |
| Oc1cc(O)c2c(c1)O[C@H](c1ccc(O)c(O)c1)[C@H](O)C2 [ECC, (−)-epicatechin] | – | – | – | 84–85% | – |
